According to patent publication US9079881B2, “Polymorph of 1-(2-methyl-4-(2,3,4,5-tetrahydro-1-benzazepin-1-ylcarbonyl)benzylcarbamoyl)-L-proline-N,N-dimethylamide” (Vantia Limited, priority 2010, dated 2015):
“Also recorded” adds a separate entry of the source. Like-named read-outs stand apart in the source and are kept apart here.

Key:
[1] = Gravimetric Vapour Sorption Analysis (GVA), hygroscopicity testing; assay type: physicochemical
Protocol: Gravimetric Vapour Sorption Analysis (GVA) was carried out with approximately 20 mg of sample placed into a suitable sample holder such as a wire-mesh vapour sorption balance pan. This was loaded into either an IGAsorp (Hiden Analytical Instruments) or a DVS Intrinsic (Surface Measurement Systems) vapour sorption balance held at 25+/−0.1° C. The sample was then dried by maintaining a 0% humidity environment until no further weight change was recorded (alternatively, the sorption/desorption cycle is initiated at typical ambient conditions of 40% relative humidity). Subsequently, the sample was then subjected to a ramping profile up to 90% relative humidity at 10% relative humidity increments, maintaining the sample at each step until equilibration had been attained (99.5% step completion). Upon reaching equilibration, the relative humidity within the apparatus was ramped to the next step and the equilibration procedure repeated. After completion of the sorption cycle, the sample was then dried using the same procedure. The weight change during the sorption/desorption cycles was then monitored, allowing for the hygroscopic nature of the sample to be determined.
The amorphous form is hygroscopic as indicated by Gravimetric Vapour Sorption Analysis (GVA).
In contrast, there was no significant water uptake observed between 40% RH and 90% RH (approximately 0.3% w/w) by the crystalline solid form (the water sorption/desorption isotherms are shown in FIGS. 9 and 10).

[2] = Stability testing: storage for 6 months at 40° C. and 75% relative humidity (Karl Fischer, HPLC, appearance); assay type: physicochemical; settings: for sum of impurities (HPLC), initial / water / moisture content (Karl Fischer), initial: before storage
Protocol: Karl Fischer moisture content determination was carried out using Metrohm 795 KFT volumetric Karl Fischer apparatus. Sample size was approximately 100 mg and the determination was carried out in duplicate.
HPLC data were collected using a Zorbax Extend C18, 2.1 mm×150 mm, 5 μm d.p. column. Flow rate was 0.3 mL/min. Injection volume was 10 μL, detector wavelength 220 nm and column temperature 40° C. Eluent A was 10 mM aqueous ammonium acetate, pH 5.0. Eluent B was 20:80 v/v 10 mM aqueous ammonium acetate: acetonitrile. The gradient programme is shown below: […]
Also, there is no significant degradation as measured by the sum of impurities which increases only from 0.9% to 1.0% (HPLC).

[3] = target: T1, vasopressin V2 receptor (Rattus norvegicus, UniProt Q00788); assay: in vivo assay described in PCT/GB2001/000023 (inhibition of urine output); settings: at 1 hour, dosed at 1 mg/Kg
T1 construct: from tissue; host or cells: whole animal (in vivo)
Description: The ability of the crystalline form of the invention to agonise the vasopressin V2 receptor may be determined using the in vivo assay described in PCT/GB2001/000023.

[4] = 6 months at 40° C. and 75% relative humidity

T1 sequence (Q00788 whole entry): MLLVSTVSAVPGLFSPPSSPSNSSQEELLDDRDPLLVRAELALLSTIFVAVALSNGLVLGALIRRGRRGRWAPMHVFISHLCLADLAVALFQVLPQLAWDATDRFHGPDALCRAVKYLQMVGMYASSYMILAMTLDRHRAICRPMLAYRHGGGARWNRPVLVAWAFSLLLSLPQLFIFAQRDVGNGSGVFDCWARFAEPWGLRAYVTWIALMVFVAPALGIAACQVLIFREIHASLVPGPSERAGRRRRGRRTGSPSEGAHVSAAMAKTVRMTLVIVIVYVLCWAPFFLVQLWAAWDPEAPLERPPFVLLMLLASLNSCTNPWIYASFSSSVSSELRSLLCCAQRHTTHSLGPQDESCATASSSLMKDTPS

water uptake between 40% RH and 90% RH ([1]; 25 °C, 40% RH to 90% RH) | change in solid form over the entire water sorption range ([1]; listed as crystalline solid form) | stability (in words) [2, 4] | sum of impurities (HPLC) after storage [2, 4] | water / moisture content (Karl Fischer) after storage [2, 4] | sum of impurities (HPLC), initial [2] | water / moisture content (Karl Fischer), initial ([2]; listed as Form 1) | hygroscopicity (in words) ([1]; listed as amorphous solid) | water / moisture content (Karl Fischer), initial [2] | inhibition of urine output [3] | Structure (SMILES) | hygroscopicity (in words) [1] | change in solid form over the entire water sorption range [1] | appearance after storage [2, 4]
approximately 0.3 % w/w | no change in solid state form | more stable than the amorphous form | 1.0% | 3.8% | 0.9% | 3.8% | – | – | – | Cc1cc(C(=O)N2CCCCc3ccccc32)ccc1CNC(=O)N1CCC[C@H]1C(=O)N(C)C [crystalline form, 1-(2-methyl-4-(2,3,4,5-tetrahydro-1-benzazepin-1-ylcarbonyl)benzylcarbamoyl)-L-proline-N,N-dimethylamide] | much less hygroscopic than the amorphous form | Neither is there any change in solid form | remains as a white powder
– | – | – | 3.7% | 5.7% | 1.5% | – | hygroscopic | 1.3% | – | Cc1cc(C(=O)N2CCCCc3ccccc32)ccc1CNC(=O)N1CCC[C@H]1C(=O)N(C)C [amorphous form, 1-(2-methyl-4-(2,3,4,5-tetrahydro-1-benzazepin-1-ylcarbonyl)benzylcarbamoyl)-L-proline-N,N-dimethylamide] | highly hygroscopic | remained stable to recrystallisation | became glassy in appearance and became yellow in colour; also recorded: became glassy in appearance and yellow in colour
– | – | – | – | – | – | – | – | – | 82% | Cc1cc(C(=O)N2CCCCc3ccccc32)ccc1CNC(=O)N1CCC[C@H]1C(=O)N(C)C [1-(2-methyl-4-(2,3,4,5-tetrahydro-1-benzazepin-1-ylcarbonyl)benzylcarbamoyl)-L-proline-N,N-dimethylamide] | – | – | –
